Experimental data from patent US6476076B1 (priority 1999, dated 2002).
Where “and” joins values, the source holds several entries; their conditions need not be identical. Equal values may be shown once. Read-outs that look alike come from different tables or passages of the source.

What was measured:
[1] = target: T1, vanilloid receptor (rat spinal cord membrane preparations) (Rattus norvegicus, UniProt O35433); experiment: biochemical; type: binding
T1 construct: determined on membrane preparations from rat spinal cord; from tissue; host or cells: rat spinal cord membranes
T1 sequence (O35433 whole entry): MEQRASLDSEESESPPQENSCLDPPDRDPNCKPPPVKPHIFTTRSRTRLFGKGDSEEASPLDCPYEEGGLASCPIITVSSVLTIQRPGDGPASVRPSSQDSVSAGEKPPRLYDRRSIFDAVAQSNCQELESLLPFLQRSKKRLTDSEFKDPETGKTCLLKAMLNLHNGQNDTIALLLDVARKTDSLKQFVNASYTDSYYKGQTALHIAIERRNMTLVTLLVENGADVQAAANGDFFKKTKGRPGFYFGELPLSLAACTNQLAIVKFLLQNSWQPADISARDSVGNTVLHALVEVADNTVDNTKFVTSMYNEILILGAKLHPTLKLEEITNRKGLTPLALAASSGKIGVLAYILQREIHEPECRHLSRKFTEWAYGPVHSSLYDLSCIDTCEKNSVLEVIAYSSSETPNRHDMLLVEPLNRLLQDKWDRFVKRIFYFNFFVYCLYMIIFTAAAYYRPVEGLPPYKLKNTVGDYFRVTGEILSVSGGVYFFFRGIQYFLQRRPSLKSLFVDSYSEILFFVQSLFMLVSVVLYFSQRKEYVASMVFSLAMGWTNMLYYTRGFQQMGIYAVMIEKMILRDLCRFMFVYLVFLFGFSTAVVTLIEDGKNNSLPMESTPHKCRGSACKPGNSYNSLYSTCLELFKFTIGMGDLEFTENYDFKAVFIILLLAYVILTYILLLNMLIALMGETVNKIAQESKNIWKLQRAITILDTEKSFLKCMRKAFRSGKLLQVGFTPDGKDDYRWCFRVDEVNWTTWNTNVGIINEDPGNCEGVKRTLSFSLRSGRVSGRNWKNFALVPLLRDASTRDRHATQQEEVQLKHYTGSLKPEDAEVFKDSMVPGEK

[2] = target: T2, CAP-activated channels in cultured neonatal rat dorsal root ganglion (DRG) neurons (Rattus norvegicus, UniProt O35433); type: cell-based; design: key: + = CAP; ++ = 10 CAP; +++ = 100 CAP
T2 construct: extracellular application of the compounds to cultured neonatal rat dorsal root ganglion (DRG) neurons; endogenous in cells; host or cells: primary cultured DRG neurons from 1 or 2 day old neonatal rats
T2 sequence (O35433 whole entry): as above

[3] = tested on: PBQ-induced writhing in ICR mice; experiment: animal or person; type: in vivo, mouse; conditions: for Relative Potency (Writhing Test) / Writhing Test ED50: mouse, in vivo; for Writhing Test ED50 / ED50: ip; for ED50: Mus musculus, read-out: Writhing Test ED50
[4] = tested on: TPA-induced ear edema in ICR mice; conditions: mouse, in vivo
[5] = tested on: rat eye (eye-wiping response); conditions: in vivo
DRG neurons = experiment: cells; type: cell-based; conditions: Rattus norvegicus, DRG neuron, 10 min, read-out: 45Ca Influx EC50
[6] = tested on: acetic acid-induced writhing in ICR mice; experiment: animal or person; type: in vivo, mouse; conditions: for ED50: Mus musculus, ip, read-out: Writhing Test ED50

| Compound | Activations [2] | Relative Potency (Writhing Test) [3] | Writhing Test ED50 [3] | Ear Edema Assay ID50 [4] | Relative Potency (Ear Edema Assay) [4] | further results |
| --- | --- | --- | --- | --- | --- | --- |
| 2-(3,4-Dimethylbenzyl)-3-{[(4-hydroxy-3-methoxybenzyl)amino]carbothioyl}propyl 3,4-Dimethylbenzoate [7b-VI] | +++ | 150 | 0.002 mg/kg | 50 μg/ear | 0.06 | Ki ([1]; read-out: Affinities (Ki)): 184 nM |
| 2-(3,4-Dimethylbenzyl)-3-{[(4-hydroxy-3-methoxybenzyl)amino]carbothioyl}propyl Pivalate [7b-I] | ++ | 600 | 0.0005 mg/kg | 18 μg/ear | 0.17 | times more potent than CAP (receptor binding) [1]: ca. 280 times; MPP: moderate pain-producing potency [5]: 0.002%; RPP: relative pain-producing potency [5]: 15 |
| 2-(3,4-Dimethylbenzyl)-3-{[(4-hydroxy-3-methoxybenzyl)amino]carbothioyl}propyl benzoate [7b-V] | ++ | 43 | 0.007 mg/kg | 50 μg/ear | 0.06 | Ki ([1]; read-out: Affinities (Ki)): 409 nM |
| 2-(4-Chlorobenzyl)-3-{[(4-hydroxy-3-methoxybenzyl)amino]carbothioyl}propyl Benzoate [7c-V] | ++ | 25 | 0.012 mg/kg | 17 μg/ear | 0.18 |  |
| 2-(4-Chlorobenzyl)-3-{[(4-hydroxy-3-methoxybenzyl)amino]carbothioyl}propyl Pivalate [7c-I] | ++ | 60 | 0.005 mg/kg | 22 μg/ear | 0.14 | Ki ([1]; read-out: Affinities (Ki)): 54.4 nM |
| 2-(4-t-Butylbenzyl)-3-{[(4-hydroxy-3-methoxybenzyl)amino]carbothioyl}propyl Benzoate [7d-V] | ++ | 200 | 0.0015 mg/kg | 30 μg/ear | 0.1 | Ki ([1]; read-out: Affinities (Ki)): 60.2 nM |
| 2-(4-t-Butylbenzyl)-3-{[(4-hydroxy-3-methoxybenzyl)amino]carbothioyl}propyl Pivalate [7d-I] | ++ | 300 | 0.001 mg/kg | 5 μg/ear | 0.6 | times more potent than CAP (receptor binding) [1]: ~490 times; % Reduction of response to 0.001% capsaicin [5]: 0 (0.1) %; MPP: moderate pain-producing potency [5]: 0.003%; RPP: relative pain-producing potency [5]: 10 |
| 2-Benzyl-3-{[(4-hydroxy-3-methoxybenzyl)amino]carbothioyl}propyl Benzoate [7a-V] | ++ | 15 | 0.02 mg/kg | 20 μg/ear | 0.15 | % Reduction of response to 0.001% capsaicin [5]: 0 (0.1) % |
| 2-Benzyl-3-{[(4-hydroxy-3-methoxybenzyl)amino]carbothioyl}propyl Hexanoate [7a-III] | ++ | 60 | 0.005 mg/kg |  |  | Ki ([1]; read-out: Affinities (Ki)): 632 nM |
| 2-Benzyl-3-{[(4-hydroxy-3-methoxybenzyl)amino]carbothioyl}propyl Pivalate [7a-I] | +++ | 150 | 0.002 mg/kg | 25 μg/ear | 0.12 |  |
| 2-Benzyl-3-{[(4-hydroxy-3-methoxybenzyl)amino]carbothioyl}propyl Stearate [7a-IV] | + | 15 | 0.02 mg/kg |  |  | Ki ([1]; read-out: Affinities (Ki)): 1870 nM |
| COc1cc(CNC(=S)NCC(COC(=O)C(C)C)Cc2ccccc2)ccc1O (stereo not shown) [7a-II, 2-Benzyl-3-{[(4-hydroxy-3-methoxybenzyl)amino]carbothioyl}propyl 2-Methyl Propanoate] | +++ | 20 |  |  |  | Ki [1]: 133 nM; ED50 [3]: 0.015 mg/kg |
| COCOc1ccc(CNC(=S)NCC(COC(=O)C(C)(C)C)Cc2ccc(C)c(C)c2)cc1OC (stereo not shown) [7b-Ia] |  |  |  |  |  | Ki [1]: 876 nM |
| COc1cc(CNC(=S)NCC(COCc2ccccc2)Cc2ccccc2)ccc1O (stereo not shown) [9a, N-[2-Benzyl-3-(benzyloxy)propyl]-N′-(4-hydroxy-3-methoxybenzyl)thiourea] | ++ |  |  |  |  | Ki [1]: 148 nM |
| COc1cc(CNC(=S)NCC(COCc2ccccc2)Cc2ccc(Cl)cc2)ccc1O (stereo not shown) [9c, N-[3-Benzyloxy-2-(4-chlorobenzyl)propyl]-N′-(4-hydroxy-3-methoxybenzyl)thiourea] | ++ |  |  |  |  | Ki [1]: 659 nM |
| COc1cc(CNC(=S)NCC(COC(=O)C(C)(C)C)Cc2ccc(C)c(C)c2)ccc1OCC(=O)O (stereo not shown) [19a, 2,2-Dimethyl-propionic Acid 2-[3-(4-Carboxymethoxy-3-methoxy-benzyl)-thioureidomethyl]-3-(3,4-dimethyl-phenyl)-propyl Ester] |  |  |  |  |  | EC50 (DRG neurons): 7770 ± 800 nM; ED50 [6]: 0.431 mg/kg |
| COc1cc(CNC(=S)NCC(COC(=O)C(C)(C)C)Cc2ccc(C(C)(C)C)cc2)ccc1OCC(=O)O (stereo not shown) [19b, 2,2-Dimethyl-propionic Acid 3-(4-t-Butyl-phenyl)-2-[3-(4-carboxymethoxy-3-methoxy-benzyl)-thioureidomethyl]-propyl Ester] |  |  |  |  |  | EC50 (DRG neurons): 12300 ± 1580 nM; ED50 [6]: 0.365 mg/kg |
| COc1cc(CNC(=S)NCC(COC(=O)C(C)(C)C)Cc2ccc(C)c(C)c2)ccc1OC(=O)CCC(=O)O (stereo not shown) [23a, Succinic Acid Mono-(4-{3-[3-(3,4-dimethyl-phenyl)-2-(2,2-dimethyl-propionyloxymethyl)-propyl]-thioureidomethyl}-2-methoxy-phenyl) Ester] |  |  |  |  |  | EC50 (DRG neurons): 7040 ± 1300 nM; ED50 [6]: 0.0531 mg/kg |
| COc1cc(CNC(=S)NCC(COC(=O)C(C)(C)C)Cc2ccc(C(C)(C)C)cc2)ccc1OC(=O)CCC(=O)O (stereo not shown) [23b, Succinic Acid Mono-(4-{3-[3-(4-t-butyl-phenyl)-2-(2,2-dimethylpropionyloxymethyl)-propyl]-thioureidomethyl}-2-methoxy-phenyl) Ester] |  |  |  |  |  | EC50 (DRG neurons): 7000 ± 1200 nM; ED50 [6]: 0.06 mg/kg |
| COc1cc(CC(=O)NCC(COC(=O)C(C)(C)C)Cc2ccc(C)c(C)c2)ccc1OCCN (stereo not shown) [28a, 2,2-Dimethyl Propionic Acid 2-({2-[4-(2-Aminoethoxy)-3-methoxyphenyl]acetylamino}methyl)-3-(3,4-dimethylphenyl)propyl Ester] |  |  |  |  |  | EC50 (DRG neurons): 1570 ± 230 nM; ED50 [6]: 0.00096 mg/kg; analgesic activity (in words) ([6]; mouse, in vivo): the most potent one and more potent than DA-5018 |
| COc1cc(CC(=O)NCC(COC(=O)C(C)(C)C)Cc2ccc(C(C)(C)C)cc2)ccc1OCCN (stereo not shown) [28b, 2,2-Dimethyl Propionic Acid 2-({2-[4-(2-Aminoethoxy)-3-methoxyphenyl]acetylamino}methyl)-3-(4-t-butylphenyl)propyl Ester] |  |  |  |  |  | EC50 (DRG neurons): 878 ± 170 nM; ED50 [6]: 0.00812 mg/kg |
| COc1cc(CNC(=S)NC[C@H](COC(=O)C(C)(C)C)Cc2ccccc2)ccc1O [(R)-7a-I] | +++ | 38 |  |  |  | Ki [1]: 18.4 nM; ED50 [3]: 0.008 mg/kg |
| CC(=O)Oc1ccccc1C(=O)O [Aspirin, reference compound] |  | 0.086 |  |  |  | ED50 [3]: 3.5 mg/kg |
| COc1cc(CNC(=O)CCCC/C=C/C(C)C)ccc1O [Capsaicin, reference compound] |  |  |  | 3 μg/ear |  | EC50 (DRG neurons): 435 nM; % Reduction of response to 0.001% capsaicin [5]: 55 (0.1) % and 35 (0.01) %; MPP: moderate pain-producing potency [5]: 0.0003%; response to 0.001% CAP challenge 6 h posttreatment (in words) [5]: attenuated eye-wiping response; ED50 [3]: 0.3 mg/kg; antiinflammatory activity in the TPA ear edema assay (in words) [4]: strong anti-edema activity |
| COc1ccc2c(c1)c(CC(=O)O)c(C)n2C(=O)c1ccc(Cl)cc1 [Indomethacin, reference compound] |  | 0.75 |  |  |  | ED50 [3]: 0.4 mg/kg |
| CN1CC[C@]23c4c5ccc(O)c4O[C@H]2[C@@H](O)C=C[C@H]3[C@H]1C5 [Morphine, reference compound] |  | 0.3 |  |  |  | ED50 [3]: 1 mg/kg |
| CCCCCCCC/C=C\CCCCCCCC(=O)NCc1ccc(O)c(OC)c1 [Olvanil, reference compound] |  | 10 |  | 30 μg/ear | 0.1 | % Reduction of response to 0.001% capsaicin [5]: 0.1%; MPP: moderate pain-producing potency [5]: WP^c; ED50 [3]: 0.03 mg/kg; antiinflammatory activity in the TPA ear edema assay (in words) [4]: weak topical activity; ED50 [6]: 0.0174 mg/kg |
| C=C(C)[C@]12C[C@@H](C)[C@@]34O[C@](Cc5ccccc5)(O[C@@H]1[C@@H]3C=C(COC(=O)Cc1ccc(O)c(OC)c1)C[C@]1(O)C(=O)C(C)=C[C@@H]41)O2 [RTX, Resiniferatoxin, reference compound] |  | 30,000 |  | 0.002 μg/ear | 1,500 | Ki [1]: 0.023 nM; MPP: moderate pain-producing potency [5]: 0.0001%; RPP: relative pain-producing potency [5]: 300; pungency, fold more potent than CAP [5]: 3 fold |
| COCOc1ccc(CNC(=S)NCC(COC(=O)C(C)(C)C)Cc2ccccc2)cc1OC (stereo not shown) [compound 10] | ++ |  |  |  |  | Ki [1]: 146 nM |
| (S)-2-Benzyl-3-{[(4-hydroxy-3-methoxybenzyl)amino]carbothioyl}propyl Pivalate [(S)-7a-I] | ++ | 33 | 0.009 mg/kg |  |  |  |
